# ChEMBL document CHEMBL1131363, “Isoindolinone enantiomers having affinity for the dopamine D4 receptor” (Bioorg Med Chem Lett, 1998)
# What was measured:
# D(4) dopamine receptor = molecular target: T1, D(4) dopamine receptor (Homo sapiens, UniProt P21917); test: In vitro binding affinity at human dopamine D4 receptor expressed in CHO cells by [3H]spiperone displacement.; format: cell-based
# T1 sequence (P21917 whole entry): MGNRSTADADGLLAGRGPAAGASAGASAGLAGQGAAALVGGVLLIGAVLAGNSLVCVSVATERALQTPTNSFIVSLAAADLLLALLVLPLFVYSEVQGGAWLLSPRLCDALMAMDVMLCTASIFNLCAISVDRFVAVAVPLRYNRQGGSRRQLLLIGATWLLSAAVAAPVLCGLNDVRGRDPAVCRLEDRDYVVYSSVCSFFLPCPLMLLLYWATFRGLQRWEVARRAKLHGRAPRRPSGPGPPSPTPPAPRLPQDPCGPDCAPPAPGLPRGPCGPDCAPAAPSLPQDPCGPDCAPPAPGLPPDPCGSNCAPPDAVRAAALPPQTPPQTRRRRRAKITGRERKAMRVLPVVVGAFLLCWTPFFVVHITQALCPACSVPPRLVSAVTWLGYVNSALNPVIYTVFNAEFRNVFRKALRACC
# D(3) dopamine receptor = D(3) dopamine receptor (Homo sapiens, UniProt P35462); test: Displacement of [3H]spiperone from human Dopamine receptor D3 expressed in CHO cells; format: cell-based
# D(2) dopamine receptor = D(2) dopamine receptor (Homo sapiens, UniProt P14416); test: Displacement of [3H]spiperone from human Dopamine receptor D2 expressed in CHO cells; format: cell-based
# [1] = molecular target: T2, 5-hydroxytryptamine receptor 1A (Mus musculus, UniProt Q64264); test: In vivo binding affinity was evaluated against 5-hydroxytryptamine 1A receptor; format: organism-based
# T2 sequence (Q64264 whole entry): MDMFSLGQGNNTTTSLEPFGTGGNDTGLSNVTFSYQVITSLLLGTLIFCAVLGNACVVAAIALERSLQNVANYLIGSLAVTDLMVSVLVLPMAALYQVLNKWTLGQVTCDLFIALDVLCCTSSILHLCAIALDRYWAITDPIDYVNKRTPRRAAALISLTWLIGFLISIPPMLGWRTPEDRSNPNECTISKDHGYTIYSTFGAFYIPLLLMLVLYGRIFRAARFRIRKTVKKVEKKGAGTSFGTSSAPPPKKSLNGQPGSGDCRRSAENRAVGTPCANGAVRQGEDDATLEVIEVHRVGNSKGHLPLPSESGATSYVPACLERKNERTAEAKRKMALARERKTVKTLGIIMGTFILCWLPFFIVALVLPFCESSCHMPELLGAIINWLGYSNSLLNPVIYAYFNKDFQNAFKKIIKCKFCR
# Rattus norvegicus = test: Reversal of amphetamine (at 0.5 mg/kg given intra peritoneal) stimulated locomotor activity at 3 mg/kg in rat.; format: functional
# [2] = molecular target: 5-hydroxytryptamine receptor 2A (Bos taurus, UniProt Q75Z89); test: In vivo binding affinity was evaluated against 5-hydroxytryptamine 2 receptor; format: organism-based
# Chain of 5-hydroxytryptamine receptor 2A (Q75Z89 whole entry): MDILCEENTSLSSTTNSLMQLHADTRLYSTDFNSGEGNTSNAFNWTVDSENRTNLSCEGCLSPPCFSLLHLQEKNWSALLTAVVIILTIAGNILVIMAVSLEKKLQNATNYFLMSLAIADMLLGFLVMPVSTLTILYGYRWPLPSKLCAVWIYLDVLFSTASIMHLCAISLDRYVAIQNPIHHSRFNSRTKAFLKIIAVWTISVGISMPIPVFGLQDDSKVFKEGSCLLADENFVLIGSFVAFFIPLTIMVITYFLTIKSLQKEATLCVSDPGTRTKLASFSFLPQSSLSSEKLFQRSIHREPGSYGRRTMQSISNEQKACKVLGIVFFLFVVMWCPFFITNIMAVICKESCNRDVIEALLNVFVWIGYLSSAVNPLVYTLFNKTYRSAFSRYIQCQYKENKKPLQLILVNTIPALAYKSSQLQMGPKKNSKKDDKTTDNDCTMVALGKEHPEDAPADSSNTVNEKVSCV
# Chain of D(3) dopamine receptor (P35462 whole entry): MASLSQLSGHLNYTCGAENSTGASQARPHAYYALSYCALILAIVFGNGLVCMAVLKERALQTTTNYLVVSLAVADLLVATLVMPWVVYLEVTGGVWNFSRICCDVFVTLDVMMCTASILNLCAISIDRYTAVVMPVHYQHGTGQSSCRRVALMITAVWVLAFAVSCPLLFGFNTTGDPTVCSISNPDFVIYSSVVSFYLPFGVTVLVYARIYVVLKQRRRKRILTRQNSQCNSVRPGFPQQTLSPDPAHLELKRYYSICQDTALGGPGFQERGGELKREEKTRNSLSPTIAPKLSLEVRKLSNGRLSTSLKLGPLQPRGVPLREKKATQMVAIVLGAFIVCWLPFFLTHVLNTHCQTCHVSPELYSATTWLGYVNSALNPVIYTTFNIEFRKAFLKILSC
# Chain of D(2) dopamine receptor (P14416 whole entry): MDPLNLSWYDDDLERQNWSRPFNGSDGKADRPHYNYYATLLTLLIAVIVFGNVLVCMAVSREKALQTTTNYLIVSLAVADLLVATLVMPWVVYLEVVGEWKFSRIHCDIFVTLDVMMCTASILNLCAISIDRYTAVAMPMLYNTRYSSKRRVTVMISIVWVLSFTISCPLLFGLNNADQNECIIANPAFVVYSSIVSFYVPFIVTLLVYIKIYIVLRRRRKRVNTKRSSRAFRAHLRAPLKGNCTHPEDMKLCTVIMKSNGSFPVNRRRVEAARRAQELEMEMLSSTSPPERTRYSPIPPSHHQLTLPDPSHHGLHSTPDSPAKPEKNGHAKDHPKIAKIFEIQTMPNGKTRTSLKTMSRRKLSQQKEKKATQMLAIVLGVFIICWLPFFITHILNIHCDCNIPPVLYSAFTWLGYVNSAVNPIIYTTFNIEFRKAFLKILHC
SMILES,Ki (D(4) dopamine receptor),Ki (D(3) dopamine receptor),Ki (D(2) dopamine receptor),also measured
O=C(CCN1CCN(c2ccc(CO)c(Cl)c2)CC1)c1ccc(Cl)cc1,60 nM,,,
Cc1ccc(N2CCN(CC[C@H]3NC(=O)c4ccccc43)CC2)cc1C,,,,Ki [1]: 525 nM; Activity (Rattus norvegicus): 8%; Ki [2]: 36.4 nM
COc1ccc(N2CCN(CCC3c4ccccc4C(=O)N3C)CC2)cc1 (configuration not stated),333 nM,> 3000 nM,> 5000 nM,
Cc1ccc(N2CCN(CCC3c4ccccc4C(=O)N3C)CC2)cc1C (configuration not stated),35.1 nM,> 3000 nM,> 5000 nM,
OCc1ccc(N2CCN(CCC(O)c3ccc(Cl)cc3)CC2)cc1Cl (configuration not stated),11 nM,,,
O=C1NC(CCN2CCN(c3ccc4ccccc4c3)CC2)c2ccccc21 (configuration not stated),10 nM,> 3000 nM,> 5000 nM,
Cc1ccc(N2CCN(CC[C@@H]3NC(=O)c4ccccc43)CC2)cc1C,,,,Ki [1]: 991 nM; Activity (Rattus norvegicus): 70%; Ki [2]: 14.6 nM
Cc1ccc(C2CCN(CCC3NC(=O)c4ccccc43)CC2)cc1C (configuration not stated),,> 3000 nM,,
Cc1ccnc(N2CCN(CCC3NC(=O)c4ccccc43)CC2)c1 (configuration not stated),22.6 nM,> 3000 nM,> 5000 nM,
OCc1ccc(N2CCN(CC[C@H](O)c3ccc(Cl)cc3)CC2)cc1Cl,8.6 nM,,,
OCc1ccc(N2CCN(CC[C@@H](O)c3ccc(Cl)cc3)CC2)cc1Cl,81.4 nM,,,
Cc1nc(N2CCN(CCC3NC(=O)c4ccccc43)CC2)sc1C (configuration not stated),,> 3000 nM,> 5000 nM,

# The next lines start with results.
Ki (D(4) dopamine receptor),Ki (D(3) dopamine receptor),Ki (D(2) dopamine receptor),SMILES,also measured
,> 3000 nM,> 5000 nM,Cc1ccc(N2CCN(CCC3NC(=O)c4ccccc43)CC2)cc1 (configuration not stated),
,> 3000 nM,> 5000 nM,O=C1NC(CCN2CCN(c3ccc(Cl)cc3)CC2)c2ccccc21 (configuration not stated),
,2680 nM,,O=C1NC(CCN2CCN(c3ccccc3)CC2)c2ccccc21 (configuration not stated),
78.6 nM,> 3000 nM,> 5000 nM,CN1C(=O)c2ccccc2C1CCN1CCN(c2ccc(Cl)cc2)CC1 (configuration not stated),
37.3 nM,> 3000 nM,> 5000 nM,COc1ccc(N2CCN(CCC3NC(=O)c4ccccc43)CC2)cc1 (configuration not stated),
,2680 nM,,Cc1ccc(N2CCN(CCC3NC(=O)c4ccccc43)CC2)cc1C (configuration not stated),
